Test results as given in ChEMBL document CHEMBL2040836, “1,3,8-Triazaspiro[4.5]decane-2,4-diones as efficacious pan-inhibitors of hypoxia-inducible factor prolyl hydroxylase 1-3 (HIF PHD1-3) for the treatment of anemia” (J Med Chem, 2012).

Experiments:
Mus musculus [1] = assay: Toxicity in C57BL/6 mouse assessed as increase in liver ALT level at 50 mg/kg, iv; assay type: organism-based; set-up: dose 50 mg/kg, route intravenous; conditions: in vivo
in vivo [2] = conditions: Sprague-Dawley, rat
in vivo [3] = conditions: Sprague-Dawley, rat; remark: listed apart in the source
in vivo [4] = conditions: Sprague-Dawley, rat; remark: listed apart in the source
in vivo [5] = conditions: Sprague-Dawley, rat; remark: listed apart in the source
in vivo [6] = conditions: Sprague-Dawley, rat, po
[7] = Metabolic stability in rat liver microsomes assessed as compound remaining after 30 mins; assay type: ADME, Microsome; conditions: read-out: Stability
[8] = AUC in Sprague-Dawley rat; assay type: ADME, organism-based; set-up: concentration or dose not given beside the values; conditions: plasma
[9] = Cmax in mouse at 5 mg/kg, po; assay type: ADME, organism-based; set-up: dose 5 mg/kg, route oral; conditions: in vivo
[10] = Clearance in mouse at 5 mg/kg, po; assay type: ADME, organism-based; set-up: dose 5 mg/kg, route oral; conditions: in vivo
Mus musculus [11] = assay: Volume of distribution at steady state in mouse at 5 mg/kg, po; assay type: ADME, organism-based; set-up: dose 5 mg/kg, route oral; conditions: in vivo
[12] = (§1) Half life in mouse at 5 mg/kg, po; assay type: ADME, organism-based; set-up: dose 5 mg/kg, route oral; conditions: in vivo
[13] = Oral bioavailability in mouse at 5 mg/kg; assay type: ADME, organism-based; conditions: in vivo
[14] = AUC in mouse at 5 mg/kg, po; assay type: ADME, organism-based; set-up: dose 5 mg/kg, route oral; conditions: plasma
[15] = Cmax in dog; assay type: ADME, organism-based, Canis lupus familiaris; conditions: in vivo
[16] = Clearance in dog; assay type: ADME, organism-based, Canis lupus familiaris; conditions: in vivo
[17] = Volume of distribution at steady state in dog; assay type: ADME, organism-based, Canis lupus familiaris; conditions: in vivo, read-out: Vdss
[18] = Half life in dog; assay type: ADME, organism-based, Canis lupus familiaris; conditions: in vivo
[19] = AUC in dog; assay type: ADME, organism-based, Canis lupus familiaris; conditions: plasma
[20] = Oral bioavailability in dog; assay type: ADME, organism-based, Canis lupus familiaris; conditions: in vivo
Mus musculus [21] = assay: as §1; assay type: ADME, organism-based; set-up: dose 5 mg/kg, route oral; conditions: in vivo
Mus musculus [22] = assay: Toxicity in C57BL/6 mouse assessed as increase in liver ALT level at 15 mg/kg, iv; assay type: organism-based; set-up: dose 15 mg/kg, route intravenous; conditions: in vivo
[23] = Toxicity in iv dosed C57BL/6 mouse assessed as no observable effect level; assay type: organism-based; conditions: in vivo

Compound	clearance (in vivo [2]) [mL/min/kg]	Cmax (in vivo [3]) [nM]	Vd (in vivo [4]) [L/kg]	half-life (in vivo [5]) [h]	bioavailability (in vivo [6]) [%]	also measured
COc1cc(N2C(=O)N(c3ccc(-c4ccc(C(N)=O)cc4)cc3)C(=O)C23CCN(Cc2ncccc2C)CC3)ncn1						fold change (FC) (Mus musculus [1]): 6.6
Cc1cccnc1CN1CCC2(CC1)C(=O)N(c1ccc(-c3ccc(C(=O)O)cc3)cc1)C(=O)N2c1ncccn1	51	100	2.2	1.1	18	
Cc1cc(C(=O)O)ccc1-c1ccc(N2C(=O)N(c3cnccn3)C3(CCN(Cc4ncccc4C)CC3)C2=O)cc1	22	390	1.6	1.5	29	
Cc1cccnc1CN1CCC2(CC1)C(=O)N(c1ccc(-c3ccc(C(=O)O)cc3)cc1)C(=O)N2c1ccncn1	16	580	2	2.2	8	
Cc1cc(C(=O)O)ccc1-c1ccc(N2C(=O)N(c3ccncn3)C3(CCN(Cc4ncccc4C)CC3)C2=O)cc1	34	390	1.9	1.1	47	
Cn1ccnc1CN1CCC2(CC1)C(=O)N(c1cnc3ccccc3c1)c1ccccc12						remaining at 0.5 h [7]: < 10%
Cc1cccnc1CN1CCC2(CC1)C(=O)N(c1cnc3ccccc3c1)c1ccccc12						remaining at 0.5 h [7]: 35%
Cc1cccnc1CN1CCC2(CC1)C(=O)N(c1ccc(-c3ccccc3)cc1)c1ccccc12	30	79	8.2	3	11	AUC [8]: 1.2 µM·h
Cc1cccnc1CN1CCC2(CC1)C(=O)N(c1ccc(-c3ccccc3)cc1)c1ncccc12	59	40	8	1.9	0	AUC [8]: 0.6 µM·h
Cc1cccnc1CN1CCC2(CC1)NC(=O)N(c1ccc(-c3ccccc3)cc1)C2=O	275	17	2.6	0.12	42	AUC [8]: 0.14 µM·h
Cc1cccnc1CN1CCC2(NC(=O)N(c3ccc(-c4ccccc4)cc3)C2=O)C(C(=O)O)C1 (stereo unspecified)	11	40	0.58	1.1	14	AUC [8]: 3.2 µM·h
Cc1cccnc1CN1CCC2(CC1)C(=O)N(c1ccc(-c3ccccc3)cc1)C(=O)N2c1nccc(O)n1	9	990	0.72	1.1	66	AUC [8]: 3.7 µM·h; Cmax [9]: 990 nM; CL/F [10]: 13 mL/min/kg; Vdss (Mus musculus [11]): 1.3 L/kg; half-life [12]: 1.4 h; bioavailability [13]: 78%; AUC [14]: 1.4 µM·h; Cmax [15]: 1500 nM; clearance [16]: 1.3 mL/min/kg; Vd [17]: 1.1 L/kg; half-life [18]: 13 h; AUC [19]: 41 µM·h; bioavailability [20]: 26%
Cc1cccnc1CN1CCC2(CC1)C(=O)N(c1ccc(-c3ccccc3)cc1)C(=O)N2c1ncccn1	51	101	2.1	1.1	18	
Cc1cccnc1CN1CCC2(CC1)C(=O)N(c1ccc(-c3ccccc3)cc1)C(=O)N2c1cc(O)ccn1	35	340	1.4	0.5	49	
Cc1cccnc1CN1CCC2(CC1)C(=O)N(c1ccc(-c3ccccc3)cc1)C(=O)N2c1ccnc(O)n1	14	1300	0.9	1.2	39	
Cc1cccnc1CN1CCC2(CC1)C(=O)N(c1ccc(-c3ccccc3)cc1)C(=O)N2c1ccc(O)nn1	40	300	1.1	1.2	58	
Cc1cccnc1CN1CCC2(C(=O)N(c3ccc(-c4ccccc4)cc3)C(=O)N2c2cc(O)ncn2)C(C(=O)O)C1 (stereo unspecified)	1.2	63	0.34	3.6	4.3	Cmax [9]: 300 nM; Vdss (Mus musculus [11]): 0.4 L/kg; t1/2 (Mus musculus [21]): 2.1 h; bioavailability [13]: 7.1%
COc1cc(N2C(=O)N(c3ccc(-c4ccc(C(=O)O)cc4)cc3)C(=O)C23CCN(Cc2ncccc2C)CC3)ncn1	8.8	1900	1.7	2.6	92	Cmax [9]: 6100 nM; CL/F [10]: 1.2 mL/min/kg; Vdss (Mus musculus [11]): 0.4 L/kg; half-life [12]: 3.7 h; bioavailability [13]: 36%
COc1cc(N2C(=O)N(c3ccc(-c4cccc(C(=O)O)c4)cc3)C(=O)C23CCN(Cc2ncccc2C)CC3)ncn1						fold change (FC) (Mus musculus [22]): 6.1
COc1cc(N2C(=O)N(c3ccc(-c4ccc(C(=O)O)cc4C)cc3)C(=O)C23CCN(Cc2ncccc2C)CC3)ncn1	11.9	570	4.3	4.1	64	NOAEL [23]: 50 mg/kg
